Measurements published in patent US6476025B1, “Phenylphennanthridines with PDE-IV inhibiting activity” (Altana Pharma AG, priority 1999, dated 2002).

Key:
[1] = test system: PDE4; test: Inhibition of PDE4 activity (method of Bauer and Schwabe, adapted to microtiter plates); format: biochemical; details: inhibitory concentration as −log IC50 (mol/l)
Method: The activity test was carried out according to the method of Bauer and Schwabe, which was adapted to microtiter plates (Naunyn-Schmiedeberg's Arch. Pharmacol. 1980, 311, 193-198). The PDE reaction takes place in the first step here. In a second step, the resulting 5′-nucleotide is cleaved by a 5′-nucleotidase of the snake venom of Crotalus atrox to the uncharged nucleoside. In the third step, the nucleoside is separated from the remaining charged substrate on ion-exchange columns. The columns are eluted directly into minivials, into which 2 ml of scintillator fluid are additionally added, for counting using 2 ml of 30 mM ammonium formate (pH 6.0).
The inhibitory values determined for the compounds according to the invention [inhibitory concentration as −log Ic50 (mol/l)] follow from the following Table A, in which the numbers of the compounds correspond to the numbers of the examples.

Row | Compound | melting point [°C] | −log IC50, inhibition of the PDE4 activity [1]
1 | COc1cccc(C(=O)c2ccc(C3=N[C@H]4CCCC[C@H]4c4cc(OC)c(OC)cc43)cc2)c1 [Compound 30, (−)-cis-8,9-Dimethoxy-6-[4-(3-methoxybenzoyl)phenyl]-1,2,3,4,4a,10b-hexahydrophenanthridine] | 146 to 148 | 7.94
2 | COc1cc2c(cc1OC)[C@@H]1CCCC[C@@H]1N=C2c1cccc(OCc2ccccc2)c1 [Compound 7, (−)-cis-8,9-Dimethoxy-6-(3-benzyloxyphenyl)-1,2,3,4,4a,10b-hexahydrophenanthridine] | 118 to 120 | 8.40
3 | CCOc1cc2c(cc1OC)C(c1ccc(CCl)cc1)=N[C@H]1CCCC[C@@H]21 (relative stereo) [Compound 19, cis-6-(4-Chloromethylphenyl)-9-ethoxy-8-methoxy-1,2,3,4,4a,10b-hexahydrophenanthridine] | 151 to 153 | 8.59
4 | COc1cc2c(cc1OC)[C@@H]1CCCC[C@@H]1N=C2c1ccc(C(=O)CC(C)C)cc1 [Compound 23, (−)-cis-8,9-Dimethoxy-6-[4-(3-methylbutyryl)phenyl]-1,2,3,4,4a,10b-hexahydrophenanthridine] | 114 to 117 | 7.5
5 | COc1cc2c(cc1OC)[C@@H]1CCCC[C@@H]1N=C2c1ccc(C(=O)CC2CC2)cc1 [Compound 24, (−)-cis-8,9-Dimethoxy-6-[4-cyclopropylmethylcarbonylphenyl]-1,2,3,4,4a,10b-hexahydrophenanthridine] | 93 to 98 | 7.48
6 | COc1cc2c(cc1OC)[C@@H]1CCCC[C@@H]1N=C2c1cccc(OCC2CC2)c1 [Compound 35, (−)-cis-8,9-Dimethoxy-6-(3-cyclopropylmethoxyphenyl)-1,2,3,4,4a,10b-hexahydrophenanthridine] | 54 to 61 | 7.43
7 | COc1cc2c(cc1OC)[C@@H]1CCCC[C@@H]1N=C2c1ccc(Oc2ccccc2)cc1 [Compound 4, (−)-cis-8,9-Dimethoxy-6-(4-phenoxyphenyl)-1,2,3,4,4a,10b-hexahydrophenanthridine] | 110 to 115 | 7.52

Continued, in another order:

Row | melting point [°C] | Compound | −log IC50, inhibition of the PDE4 activity [1]
8 | 102 to 105 | CCOc1cc2c(cc1OC)C(c1ccc(OCC)c(OCC3CC3)c1)=NC1CCCCC21 (single isomer, unassigned; (-)) [Compound 39, (−)-cis-9-Ethoxy-8-methoxy-6-[(3-cyclopropylmethoxy-4-ethoxy)phenyl]-1,2,3,4,4a,10b-hexahydrophenanthridine] | 8.87
9 | 147 to 152 | COc1cc2c(cc1OC)[C@@H]1CCCC[C@@H]1N=C2c1ccc(OC)c(N2CCCC2=O)c1 [Compound 47, (−)-cis-8,9-Dimethoxy-6-[4-methoxy-3-(2-oxopyrrolidin-1-yl)phenyl]-1,2,3,4,4a,10b-hexahydrophenanthridine] | 7.33
10 | 168 to 177 | COc1cc2c(cc1OC)C1CCCCC1N=C2c1ccc(OC)c(N2C(=O)CCC2=O)c1 (single isomer, unassigned; (-)) [Compound 48, (−)-cis-8,9-Dimethoxy-6-{[3-(2,5-dioxopyrrolidin-1-yl)-4-methoxy]phenyl}-1,2,3,4,4a,10b-hexahydrophenanthridine] | 7.67
